Where a name gives a salt, the structure may show the parent alone.
target: TrkA (Homo sapiens, UniProt P04629); assay: TrkA LanthaScreen Eu Kinase Binding Assay; set-up: 6HIS tagged cytoplasmic domain from Invitrogen, Catalog No. PV3144; purchased Invitrogen PV3144; settings: averaged IC50; TR-FRET binding assay; read-out: TrkA Enzyme IC50
Description: TrkA binding activity was determined in a TrkA LanthaScreen™ Eu Kinase Binding Assay. 5 nM His-tagged recombinant human TrkA (6HIS tagged cytoplasmic domain from Invitrogen, Catalog No. PV3144) was incubated with 4 nM Alexa-Fluor® Tracer 236 (Invitrogen Cat. No. PV5592), 2 nM biotinylated anti-His (Invitrogen Cat. No. PV6090), and 2 nM europium-labeled Streptavidin (Invitrogen Cat. No. PV5899), in buffer (25 mM MOPS, pH 7.5, 5 mM MgCl2, 0.005% Triton X-100). Three fold serial dilutions of compounds of the invention in DMSO were added to a final percentage of 2% DMSO. After 60-minute incubation at 22° C., the reaction was measured using the EnVision mutlimode plate reader (PerkinElmer) via TR-FRET dual wavelength detection at […]. The percent of control was calculated using a ratiometric emission factor. The IC50 values were determined by fitting a four parameter model to the percent of control data.
Table A provides averaged IC50 values for compounds of the invention when tested in the assay of Example A, where A represents an averaged IC50 value<100 nM; B represents an averaged IC50 value from 100 to 1,000 nM; and C represents an averaged IC50 value from 1,000 to 10,000 nM.

TrkA, sequence (P04629 440-796 limits assumed): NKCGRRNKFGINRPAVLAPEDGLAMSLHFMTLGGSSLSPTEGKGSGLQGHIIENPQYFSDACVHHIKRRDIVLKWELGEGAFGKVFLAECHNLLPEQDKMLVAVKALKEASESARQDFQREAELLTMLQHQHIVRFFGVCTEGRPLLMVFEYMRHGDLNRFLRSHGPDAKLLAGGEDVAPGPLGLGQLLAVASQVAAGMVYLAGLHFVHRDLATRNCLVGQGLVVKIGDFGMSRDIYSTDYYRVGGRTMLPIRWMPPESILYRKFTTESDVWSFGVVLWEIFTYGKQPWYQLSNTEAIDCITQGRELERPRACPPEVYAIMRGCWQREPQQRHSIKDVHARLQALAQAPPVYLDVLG

| IC50 | SMILES |
| --- | --- |
| < 100 nM | COCCCc1cc(Cl)c(Cl)cc1NC(=O)Nc1c(C)c(C2CCN(C)CC2)nn1-c1ccccc1 [Example 18, 1-(4,5-dichloro-2-(3-methoxypropyl)phenyl)-3-(4-methyl-3-(1-methylpiperidin-4-yl)-1-phenyl-1H-pyrazol-5-yl)urea] |
| < 100 nM | COCCCc1cc(F)c(C(F)(F)F)cc1NC(=O)Nc1c(C)c(OC)nn1-c1ccccc1 [Example 48, 1-(4-fluoro-2-(3-methoxypropyl)-5-(trifluoromethyl)phenyl)-3-(3-methoxy-4-methyl-1-phenyl-1H-pyrazol-5-yl)urea] |
| < 100 nM | COCCCc1cc(Cl)c(Cl)cc1NC(=O)Nc1c(C)c(OC[C@H]2CCCNC2)nn1-c1ccccc1 [Example 46, (S)-1-(4,5-dichloro-2-(3-methoxypropyl)phenyl)-3-(4-methyl-1-phenyl-3-(piperidin-3-ylmethoxy)-1H-pyrazol-5-yl)urea hydrochloride] |
| < 100 nM | COCCCc1cc(Cl)c(Cl)cc1NC(=O)Nc1c(C)c(OC[C@H]2CCCN(C)C2)nn1-c1ccccc1 [Example 34, (S)-1-(4,5-dichloro-2-(3-methoxypropyl)phenyl)-3-(4-methyl-3-((1-methylpiperidin-3-yl)methoxy)-1-phenyl-1H-pyrazol-5-yl)urea] |
| < 100 nM | COCCCc1cc(Cl)c(Cl)cc1NC(=O)Nc1c(C)c(OCCC2CCNCC2)nn1-c1ccccc1 [Example 40, 1-(4,5-dichloro-2-(3-methoxypropyl)phenyl)-3-(4-methyl-1-phenyl-3-(2-(piperidin-4-yl)ethoxy)-1H-pyrazol-5-yl)urea hydrochloride] |
| < 100 nM | COCCCc1cc(Cl)c(Cl)cc1NC(=O)Nc1c(C)c(OCC2CCN(C)CC2)nn1-c1ccccc1 [Example 24] |
| < 100 nM | COCCOc1cc(C(F)(F)F)ccc1NC(=O)Nc1c(C)c(-c2cnn(C)c2)nn1-c1ccccc1 [Example 10, 1-(1′,4-dimethyl-1-phenyl-1H,1′H-[3,4′-bipyrazol]-5-yl)-3-(2-(2-methoxyethoxy)-4-(trifluoromethyl)phenyl)urea] |
| < 100 nM | COCCCc1cc(Cl)c(Cl)cc1NC(=O)Nc1c(C)c(OCCC2CCN(C)CC2)nn1-c1ccccc1 [Example 29, 1-(4,5-dichloro-2-(3-methoxypropyl)phenyl)-3-(4-methyl-3-(2-(1-methylpiperidin-4-yl)ethoxy)-1-phenyl-1H-pyrazol-5-yl)urea] |
| < 100 nM | COCCCc1cc(Cl)c(Cl)cc1NC(=O)Nc1c(C)c(OCC2CCNCC2)nn1-c1ccccc1 [Example 41, 1-(4,5-dichloro-2-(3-methoxypropyl)phenyl)-3-(4-methyl-1-phenyl-3-(piperidin-4-ylmethoxy)-1H-pyrazol-5-yl)urea hydrochloride] |
| < 100 nM | COCCCc1cc(F)c(C(F)(F)F)cc1NC(=O)Nc1c(C)c(-c2ccc(=O)n(C)c2)nn1-c1ccccc1 [Example 17, 1-(4-fluoro-2-(3-methoxypropyl)-5-(trifluoromethyl)phenyl)-3-(4-methyl-3-(1-methyl-6-oxo-1,6-dihydropyridin-3-yl)-1-phenyl-1H-pyrazol-5-yl)urea] |
| < 100 nM | COCCOc1ccc(Cl)cc1NC(=O)Nc1c(C)c(-c2cnn(C)c2)nn1-c1ccccc1 [Example 12, 1-(5-chloro-2-(2-methoxyethoxy)phenyl)-3-(1′,4-dimethyl-1-phenyl-1H,1′H-[3,4′-bipyrazol]-5-yl)urea] |
| < 100 nM | CNC(=O)c1nn(-c2ccccc2)c(NC(=O)Nc2cc(C(F)(F)F)c(F)cc2CCCOC)c1C [Example 19, 5-(3-(4-fluoro-2-(3-methoxypropyl)-5-(trifluoromethyl)phenyl)ureido)-N,4-dimethyl-1-phenyl-1H-pyrazole-3-carboxamide] |
| < 100 nM | COCCOc1cc(Cl)c(Cl)cc1NC(=O)Nc1c(C)c(-c2cnn(C)c2)nn1-c1ccccc1 [Example 3, 1-(4,5-dichloro-2-(2-methoxyethoxy)phenyl)-3-(1′,4-dimethyl-1-phenyl-1H,1′H-[3,4′-bipyrazol]-5-yl)urea] |
| < 100 nM | COCCCc1cc(Cl)c(Cl)cc1NC(=O)Nc1c(C)c(OC[C@@H]2CNCCO2)nn1-c1ccccc1 [Example 38, (S)-1-(4,5-dichloro-2-(3-methoxypropyl)phenyl)-3-(4-methyl-3-(morpholin-2-ylmethoxy)-1-phenyl-1H-pyrazol-5-yl)urea hydrochloride] |
| 100 to 1000 nM | COCCOc1ncc(C(F)(F)F)cc1NC(=O)Nc1c(C)c(-c2cnn(C)c2)nn1-c1ccccc1 [Example 4, 1-(1′,4-dimethyl-1-phenyl-1H,1′H-[3,4′-bipyrazol]-5-yl)-3-(2-(2-methoxyethoxy)-5-(trifluoromethyl)pyridin-3-yl)urea] |
| < 100 nM | COCCCc1cc(Cl)c(Cl)cc1NC(=O)Nc1c(C)c(OCC2(F)CCNCC2)nn1-c1ccccc1 [Example 45, 1-(4,5-dichloro-2-(3-methoxypropyl)phenyl)-3-(3-((4-fluoropiperidin-4-yl)methoxy)-4-methyl-1-phenyl-1H-pyrazol-5-yl)urea hydrochloride] |
| < 100 nM | COCCCc1cc(Cl)c(Cl)cc1NC(=O)Nc1c(C)c(C(=O)NC2CCN(C)CC2)nn1-c1ccccc1 [Example 33, 5-(3-(4,5-dichloro-2-(3-methoxypropyl)phenyl)ureido)-4-methyl-N-(1-methylpiperidin-4-yl)-1-phenyl-1H-pyrazole-3-carboxamide] |
| < 100 nM | COCCCc1cc(Cl)c(Cl)cc1NC(=O)Nc1c(C)c(OCCN2CCN(C(=O)OC(C)(C)C)CC2)nn1-c1ccccc1 [Example 49, tert-butyl 4-(2-((5-(3-(4,5-dichloro-2-(3-methoxypropyl)phenyl)ureido)-4-methyl-1-phenyl-1H-pyrazol-3-yl)oxy)ethyl)piperazine-1-carboxylate] |

— patent publication US9790210B2, “N-(monocyclic aryl),N'-pyrazolyl-urea, thiourea, guanidine and cyanoguanidine compounds as TrkA kinase inhibitors” (Array BioPharma Inc., priority 2012, dated 2017)
